Reference: ChEMBL document CHEMBL1201862, “PubChem BioAssay data set” (2004)
Activity calls are given as the source filed them.

Experiments:
[1] = target: T1, Histone-lysine N-methyltransferase NSD2 (Homo sapiens, UniProt O96028); type: biochemical
T1 sequence (O96028 whole entry): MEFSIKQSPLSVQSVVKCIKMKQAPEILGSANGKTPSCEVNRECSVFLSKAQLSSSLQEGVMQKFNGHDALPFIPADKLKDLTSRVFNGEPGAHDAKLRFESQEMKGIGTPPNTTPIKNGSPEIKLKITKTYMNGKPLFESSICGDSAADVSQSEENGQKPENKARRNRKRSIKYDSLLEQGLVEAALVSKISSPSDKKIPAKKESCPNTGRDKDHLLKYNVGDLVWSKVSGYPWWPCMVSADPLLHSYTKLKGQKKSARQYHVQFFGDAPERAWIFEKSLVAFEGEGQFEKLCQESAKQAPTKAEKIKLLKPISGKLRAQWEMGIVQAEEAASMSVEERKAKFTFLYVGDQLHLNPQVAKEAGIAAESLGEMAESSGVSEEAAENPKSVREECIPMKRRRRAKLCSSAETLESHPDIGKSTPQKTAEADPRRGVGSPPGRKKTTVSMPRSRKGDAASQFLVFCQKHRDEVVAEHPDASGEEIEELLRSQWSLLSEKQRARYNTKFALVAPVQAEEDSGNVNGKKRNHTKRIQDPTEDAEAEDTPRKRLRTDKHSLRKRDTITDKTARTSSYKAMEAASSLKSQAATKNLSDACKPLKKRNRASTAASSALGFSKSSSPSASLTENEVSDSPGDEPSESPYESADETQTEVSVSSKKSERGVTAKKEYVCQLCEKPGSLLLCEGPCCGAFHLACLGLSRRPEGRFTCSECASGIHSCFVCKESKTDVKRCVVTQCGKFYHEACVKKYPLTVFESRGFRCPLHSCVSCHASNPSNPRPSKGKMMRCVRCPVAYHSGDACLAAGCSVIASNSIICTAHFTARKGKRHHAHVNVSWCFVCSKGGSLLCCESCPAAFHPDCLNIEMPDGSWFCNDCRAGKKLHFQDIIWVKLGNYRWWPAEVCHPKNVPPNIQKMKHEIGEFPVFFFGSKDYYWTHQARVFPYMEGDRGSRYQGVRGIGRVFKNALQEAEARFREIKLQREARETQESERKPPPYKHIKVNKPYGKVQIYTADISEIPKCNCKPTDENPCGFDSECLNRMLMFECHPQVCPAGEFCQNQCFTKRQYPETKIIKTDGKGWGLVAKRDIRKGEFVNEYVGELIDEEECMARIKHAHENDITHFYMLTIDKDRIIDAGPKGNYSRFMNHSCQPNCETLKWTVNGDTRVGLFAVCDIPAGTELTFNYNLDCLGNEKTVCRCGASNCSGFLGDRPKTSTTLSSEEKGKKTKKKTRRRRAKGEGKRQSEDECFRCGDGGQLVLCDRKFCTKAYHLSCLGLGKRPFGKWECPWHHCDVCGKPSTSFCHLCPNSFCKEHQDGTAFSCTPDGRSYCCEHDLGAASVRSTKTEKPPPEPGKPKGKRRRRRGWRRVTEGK

[2] = Luminescence Cell-Based Dose Confirmation HTS to Identify Inhibitors of Platelet Dense Granule Release. [Related pubchem assays: 1663 (Primary HTS), 1678 (Summary of Project)]; type: functional
[3] = target: Luciferin 4-monooxygenase (Photinus pyralis, UniProt P08659); experiment: inhibition of purified Photinus pyralis luciferase – biochemical, luminescence, dose response (AID 1891)
Cytochrome P450 2D6 = Cytochrome P450 2D6 (Homo sapiens, UniProt P10635);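 also: CYP2D6 member of a cytochrome P450 panel assay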
[4] = target: T2, Corticotropin-releasing factor receptor 2/Corticotropin-releasing factor-binding protein (Homo sapiens, UniProt P24387+Q13324); experiment: Dose Response confirmation of uHTS hits for small molecule antagonists of the CRF-binding protein and CRF-R2 receptor complex.; type: functional; details: read-out: IC50_Mean
T2 sequence (Q13324 whole entry): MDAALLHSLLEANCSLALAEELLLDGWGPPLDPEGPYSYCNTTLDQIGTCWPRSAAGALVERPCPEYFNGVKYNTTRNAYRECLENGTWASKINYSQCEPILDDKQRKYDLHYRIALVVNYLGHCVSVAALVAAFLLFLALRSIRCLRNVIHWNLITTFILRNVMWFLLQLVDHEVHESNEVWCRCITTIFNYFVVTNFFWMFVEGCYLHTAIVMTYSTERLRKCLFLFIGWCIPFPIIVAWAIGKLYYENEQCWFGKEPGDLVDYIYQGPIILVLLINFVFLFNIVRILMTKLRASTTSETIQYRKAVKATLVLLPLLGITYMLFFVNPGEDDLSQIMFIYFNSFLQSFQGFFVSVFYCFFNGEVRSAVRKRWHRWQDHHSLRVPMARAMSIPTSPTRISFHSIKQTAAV
T2 sequence (P24387 whole entry): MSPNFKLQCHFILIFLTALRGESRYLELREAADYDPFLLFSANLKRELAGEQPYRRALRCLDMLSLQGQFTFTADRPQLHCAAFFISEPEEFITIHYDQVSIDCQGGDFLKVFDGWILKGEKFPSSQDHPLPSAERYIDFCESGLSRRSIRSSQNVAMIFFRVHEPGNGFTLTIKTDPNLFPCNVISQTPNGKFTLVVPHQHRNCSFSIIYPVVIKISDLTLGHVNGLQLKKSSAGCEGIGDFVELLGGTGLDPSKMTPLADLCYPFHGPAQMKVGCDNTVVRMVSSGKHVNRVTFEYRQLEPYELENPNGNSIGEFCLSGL

[5] = target: T2, Corticotropin-releasing factor receptor 2/Corticotropin-releasing factor-binding protein; experiment: activators of CRF receptor 2 with binding protein – uHTS hits, confirmation (AID 602473); type: functional; details: read-out: EC50_Mean
Cytochrome P450 2C19 = Cytochrome P450 2C19 (Homo sapiens, UniProt P33261); experiment: Cytochrome panel assay with activity outcomes. Panel member name: p450-cyp2c19 Compounds with AC50 equal or less than 10 uM are considered active; type: functional; details: read-out: AC50
Cytochrome P450 3A4 = Cytochrome P450 3A4 (Homo sapiens, UniProt P08684);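 also: CYP3A4 tested as one member of a cytochrome P450 panel screen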
Cytochrome P450 2C9 = Cytochrome P450 2C9 (Homo sapiens, UniProt P11712)
[6] = target: T3, Short transient receptor potential channel 4 (Mus musculus, UniProt Q9QUQ5); experiment: calcium entry via TRPC4 opening agents – cell-based, HEK293 TRPC4/mu-opioid, Fluo-4 calcium, dose response (AID 434937); type: functional
T3 sequence (Q9QUQ5 whole entry): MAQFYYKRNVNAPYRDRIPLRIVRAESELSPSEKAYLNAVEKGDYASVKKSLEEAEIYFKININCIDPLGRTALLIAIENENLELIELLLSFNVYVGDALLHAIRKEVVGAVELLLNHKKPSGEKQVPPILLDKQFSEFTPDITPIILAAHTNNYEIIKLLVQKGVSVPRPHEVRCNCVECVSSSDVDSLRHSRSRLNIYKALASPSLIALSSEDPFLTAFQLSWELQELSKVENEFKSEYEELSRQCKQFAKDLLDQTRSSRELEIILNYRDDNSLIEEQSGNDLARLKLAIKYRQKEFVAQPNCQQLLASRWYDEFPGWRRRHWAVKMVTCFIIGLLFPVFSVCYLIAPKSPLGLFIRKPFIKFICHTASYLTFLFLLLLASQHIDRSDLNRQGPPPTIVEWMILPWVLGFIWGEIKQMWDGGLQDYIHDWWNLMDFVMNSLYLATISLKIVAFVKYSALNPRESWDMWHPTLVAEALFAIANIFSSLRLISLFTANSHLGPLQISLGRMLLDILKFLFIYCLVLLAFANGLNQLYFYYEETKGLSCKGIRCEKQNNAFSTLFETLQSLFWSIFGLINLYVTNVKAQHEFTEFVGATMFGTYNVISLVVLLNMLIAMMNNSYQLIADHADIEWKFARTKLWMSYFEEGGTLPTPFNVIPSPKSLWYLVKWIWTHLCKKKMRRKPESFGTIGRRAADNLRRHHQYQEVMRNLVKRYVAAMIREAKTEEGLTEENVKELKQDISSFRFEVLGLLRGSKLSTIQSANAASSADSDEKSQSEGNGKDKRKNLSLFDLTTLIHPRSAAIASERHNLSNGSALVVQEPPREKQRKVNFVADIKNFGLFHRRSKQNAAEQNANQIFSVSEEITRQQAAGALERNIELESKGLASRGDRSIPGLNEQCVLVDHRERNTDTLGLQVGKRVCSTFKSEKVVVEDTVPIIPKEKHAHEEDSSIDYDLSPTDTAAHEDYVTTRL

[7] = target: T4, Rac GTPase-activating protein 1 (Homo sapiens, UniProt Q9H0H5); experiment: blockers of MgcRacGAP-driven Rac1 GTP hydrolysis – biochemical, ADP Hunter fluorescence, primary and confirmatory, confirmation (AID 624330); type: functional
T4 sequence (Q9H0H5 whole entry): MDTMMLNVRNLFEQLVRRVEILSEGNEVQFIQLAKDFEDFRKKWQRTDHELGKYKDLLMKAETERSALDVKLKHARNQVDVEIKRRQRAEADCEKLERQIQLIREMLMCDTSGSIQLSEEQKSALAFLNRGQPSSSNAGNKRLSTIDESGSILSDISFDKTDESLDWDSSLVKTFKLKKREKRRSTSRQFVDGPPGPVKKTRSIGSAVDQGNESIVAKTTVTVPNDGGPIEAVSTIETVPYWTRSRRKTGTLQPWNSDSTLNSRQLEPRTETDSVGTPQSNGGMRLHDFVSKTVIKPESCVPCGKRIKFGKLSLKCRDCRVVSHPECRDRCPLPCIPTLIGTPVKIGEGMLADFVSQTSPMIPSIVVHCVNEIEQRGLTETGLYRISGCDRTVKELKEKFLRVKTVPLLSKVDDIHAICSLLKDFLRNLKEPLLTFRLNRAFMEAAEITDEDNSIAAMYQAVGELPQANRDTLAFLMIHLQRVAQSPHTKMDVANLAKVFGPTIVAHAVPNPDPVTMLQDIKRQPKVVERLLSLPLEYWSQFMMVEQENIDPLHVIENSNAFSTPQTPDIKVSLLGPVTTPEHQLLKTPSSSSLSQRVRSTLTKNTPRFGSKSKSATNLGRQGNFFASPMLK

Cytochrome P450 1A2 = target: T5, Cytochrome P450 1A2 (Homo sapiens, UniProt P05177);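 also: PubChem cytochrome P450 panel assay, CYP1A2 panel member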
T5 sequence (P05177 whole entry): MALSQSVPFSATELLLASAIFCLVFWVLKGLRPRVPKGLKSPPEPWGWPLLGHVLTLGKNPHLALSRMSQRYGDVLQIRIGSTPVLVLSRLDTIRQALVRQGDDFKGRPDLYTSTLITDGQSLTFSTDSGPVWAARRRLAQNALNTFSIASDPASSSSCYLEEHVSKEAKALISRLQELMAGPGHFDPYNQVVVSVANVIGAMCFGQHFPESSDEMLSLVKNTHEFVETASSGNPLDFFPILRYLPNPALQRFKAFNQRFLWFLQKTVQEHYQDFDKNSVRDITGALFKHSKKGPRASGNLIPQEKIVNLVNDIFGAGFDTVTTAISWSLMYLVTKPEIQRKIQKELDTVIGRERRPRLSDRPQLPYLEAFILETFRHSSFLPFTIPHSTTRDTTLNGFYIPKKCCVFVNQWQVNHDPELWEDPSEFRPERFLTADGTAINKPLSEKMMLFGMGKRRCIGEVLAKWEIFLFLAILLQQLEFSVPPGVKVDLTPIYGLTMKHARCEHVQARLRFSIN

Sequence of Luciferin 4-monooxygenase (P08659 whole entry): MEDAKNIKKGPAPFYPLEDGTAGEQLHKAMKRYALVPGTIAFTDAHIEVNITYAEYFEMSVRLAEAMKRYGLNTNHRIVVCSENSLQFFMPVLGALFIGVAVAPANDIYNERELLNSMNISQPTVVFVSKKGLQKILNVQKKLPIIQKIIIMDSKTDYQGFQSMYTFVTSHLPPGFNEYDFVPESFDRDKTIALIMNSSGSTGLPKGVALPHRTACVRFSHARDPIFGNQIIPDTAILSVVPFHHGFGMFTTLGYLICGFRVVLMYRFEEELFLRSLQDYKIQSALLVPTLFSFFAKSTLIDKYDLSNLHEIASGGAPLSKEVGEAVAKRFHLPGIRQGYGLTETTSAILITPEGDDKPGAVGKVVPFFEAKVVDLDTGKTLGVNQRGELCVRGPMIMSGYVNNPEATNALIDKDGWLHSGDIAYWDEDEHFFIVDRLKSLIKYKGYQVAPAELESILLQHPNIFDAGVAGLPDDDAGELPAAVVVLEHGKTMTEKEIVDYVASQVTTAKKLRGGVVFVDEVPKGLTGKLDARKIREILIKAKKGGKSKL
Sequence of Cytochrome P450 2D6 (P10635 whole entry): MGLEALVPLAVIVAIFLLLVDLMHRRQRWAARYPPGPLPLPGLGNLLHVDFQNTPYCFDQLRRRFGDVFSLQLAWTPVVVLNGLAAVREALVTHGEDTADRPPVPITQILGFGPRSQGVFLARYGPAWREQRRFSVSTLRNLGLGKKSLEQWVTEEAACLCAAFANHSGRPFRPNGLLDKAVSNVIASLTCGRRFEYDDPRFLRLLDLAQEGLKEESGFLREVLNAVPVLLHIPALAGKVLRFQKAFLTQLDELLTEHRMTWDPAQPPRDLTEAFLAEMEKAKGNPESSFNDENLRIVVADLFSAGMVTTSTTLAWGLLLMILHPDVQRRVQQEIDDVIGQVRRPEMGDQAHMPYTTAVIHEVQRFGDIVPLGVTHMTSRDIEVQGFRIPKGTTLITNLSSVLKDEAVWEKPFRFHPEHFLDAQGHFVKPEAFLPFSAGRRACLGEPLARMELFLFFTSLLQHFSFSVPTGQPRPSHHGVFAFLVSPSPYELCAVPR
Sequence of Cytochrome P450 3A4 (P08684 whole entry): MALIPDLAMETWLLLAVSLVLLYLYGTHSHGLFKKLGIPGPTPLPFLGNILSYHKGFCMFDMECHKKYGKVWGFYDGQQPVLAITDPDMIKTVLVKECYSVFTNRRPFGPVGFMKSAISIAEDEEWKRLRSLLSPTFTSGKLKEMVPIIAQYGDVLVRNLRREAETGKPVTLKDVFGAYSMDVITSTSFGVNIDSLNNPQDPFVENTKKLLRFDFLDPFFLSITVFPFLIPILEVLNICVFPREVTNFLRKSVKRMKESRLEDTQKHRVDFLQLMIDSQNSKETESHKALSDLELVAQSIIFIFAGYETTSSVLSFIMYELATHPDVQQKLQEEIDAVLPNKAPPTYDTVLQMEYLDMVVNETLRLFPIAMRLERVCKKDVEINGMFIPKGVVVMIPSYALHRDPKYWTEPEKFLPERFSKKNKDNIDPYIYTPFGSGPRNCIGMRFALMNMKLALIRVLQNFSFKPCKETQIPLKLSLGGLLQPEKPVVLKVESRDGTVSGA
Sequence of Cytochrome P450 2C9 (P11712 whole entry): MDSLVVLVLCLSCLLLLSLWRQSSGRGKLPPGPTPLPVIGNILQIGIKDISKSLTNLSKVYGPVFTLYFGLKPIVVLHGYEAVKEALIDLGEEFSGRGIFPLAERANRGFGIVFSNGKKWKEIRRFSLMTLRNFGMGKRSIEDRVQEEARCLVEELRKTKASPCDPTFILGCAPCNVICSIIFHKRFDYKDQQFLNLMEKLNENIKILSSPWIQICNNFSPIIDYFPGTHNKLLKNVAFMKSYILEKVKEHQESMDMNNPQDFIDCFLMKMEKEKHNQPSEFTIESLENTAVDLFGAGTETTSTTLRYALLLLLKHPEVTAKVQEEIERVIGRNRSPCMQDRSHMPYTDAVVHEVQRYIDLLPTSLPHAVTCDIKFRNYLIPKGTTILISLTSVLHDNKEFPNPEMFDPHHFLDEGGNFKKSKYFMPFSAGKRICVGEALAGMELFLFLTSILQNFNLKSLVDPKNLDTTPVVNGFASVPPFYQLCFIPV
Sequence of Cytochrome P450 2C19 (P33261 whole entry): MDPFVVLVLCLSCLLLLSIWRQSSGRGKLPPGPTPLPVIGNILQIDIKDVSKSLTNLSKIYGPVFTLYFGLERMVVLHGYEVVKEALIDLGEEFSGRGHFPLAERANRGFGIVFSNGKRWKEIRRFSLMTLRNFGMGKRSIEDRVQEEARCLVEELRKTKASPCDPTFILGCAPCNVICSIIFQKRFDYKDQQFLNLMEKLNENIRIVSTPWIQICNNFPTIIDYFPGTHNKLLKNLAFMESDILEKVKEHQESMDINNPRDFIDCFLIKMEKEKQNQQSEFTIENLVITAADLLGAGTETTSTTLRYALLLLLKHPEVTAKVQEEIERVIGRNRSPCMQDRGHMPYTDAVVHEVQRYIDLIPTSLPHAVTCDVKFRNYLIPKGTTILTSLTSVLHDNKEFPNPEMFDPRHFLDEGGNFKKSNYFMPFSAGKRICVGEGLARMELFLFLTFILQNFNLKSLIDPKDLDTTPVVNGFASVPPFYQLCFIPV

Row | AC50 (Cytochrome P450 2D6) | SMILES | EC50 [2] | EC50 [3] | further results
1 |  | CSC1=NSC2=NC(=O)/C(=C/c3coc4ccccc4c3=O)C(=N)N12 |  |  | AC50 [1]: 16.5 µM (active)
2 |  | O=C(Nc1ccccc1C(=O)N/N=C/c1ccncc1)c1ccccc1 | 3.06 µM (active) | < 0.088 µM (active) | 
3 |  | COCc1cc(C)nc(SCC[N+](C)(C)CC(=O)c2ccc(Br)cc2)c1C#N | > 112 µM (not active) | > 112 µM (not active) | 
4 | 31.6 µM (inconclusive) | COc1ccccc1CCn1c(=O)c(-c2cccc(Cl)c2)nc2cncnc21 |  |  | 
5 | 5.01 µM (inconclusive) | N#Cc1cccc(-c2nc(NCc3cccs3)c3ccccc3n2)c1 |  |  | 
6 |  | COc1ccc(/C=N/NC(=O)c2nonc2C)cc1 | 2.84 µM (active) | 9.4 µM (active) | 
7 |  | COc1ccc2cc(C(=O)N3CCN(Cc4ccc5c(c4)OCO5)CC3)[nH]c2c1 | > 112 µM (not active) | > 112 µM (not active) | IC50 [4]: > 47.1 µM (inactive); EC50 [5]: > 53 µM (inactive)
8 | 12.6 µM (inconclusive) | COCCn1c(=O)c(-c2ccccc2)nc2cnc(N(C)C)nc21 |  |  | AC50 (Cytochrome P450 2C19): 2 µM (inconclusive); AC50 (Cytochrome P450 3A4): 39.8 µM (inconclusive)
9 |  | CCN(CC)CCC(=O)c1ccc(F)cc1 |  |  | AC50 [1]: > 20 µM (inactive)
10 | 6.31 µM (inconclusive) | C[C@@H]1CC[C@@H]2C(=O)N3[C@@H](CC[C@@H](C)[C@@H]3c3ccc(-c4ccco4)cc3)C(=O)N2[C@H]1c1ccc(-c2ccco2)cc1 |  |  | 
11 |  | Cc1ccc(NC(=O)Cc2nc(CCl)cs2)cc1 | > 112 µM (not active) | > 112 µM (not active) | 
12 | 22.4 µM (inconclusive) | C=CCN=C(NC#N)SCc1ccccc1 |  |  | AC50 (Cytochrome P450 2C9): 15.8 µM (inconclusive)
13 |  | CCN(CC)CCCN(Cc1cc2cc(OC)ccc2nc1O)C(=O)Nc1ccc(F)cc1 |  |  | AC50 [1]: 12.4 µM (active)
14 |  | COc1ccccc1NS(=O)(=O)c1ccc(NC(C)=O)cc1 | > 112 µM (not active) | > 112 µM (not active) | 
15 |  | CC(C)N1C[C@@]23C=C[C@@H](O2)C(C(=O)OCc2ccccc2)[C@H]3C1=O (stereo partly drawn) | > 112 µM (not active) | > 112 µM (not active) | 
16 |  | Cc1ccc(NC(=O)CNCC(c2ccccc2)N(C)C)cc1F (stereo not drawn) |  |  | EC50 [6]: 0.596 µM (active); IC50 [7]: 70.8 µM (active)
17 | 1 µM (inconclusive) | CCOc1cc(/C=N/NC(=O)c2cccc([N+](=O)[O-])c2)ccc1OS(=O)(=O)c1ccccc1 |  |  | AC50 (Cytochrome P450 3A4): 8.91 µM (inconclusive); AC50 (Cytochrome P450 1A2): 7.08 µM (inconclusive); AC50 (Cytochrome P450 2C9): 11.2 µM (inconclusive)
